From patent US20020081731A1, “MANIPULATION OF PLANT CELL AND TISSUE CULTURES” (priority 1995, published 2002)

Test system: E. californica suspension subcultures
Experiment: Seed pretreatment, HPLC analysis of suspension subculture extracts
Type: cell-based, Eschscholtzia californica
Conditions: ungerminated seeds pretreated or not pretreated; T1 and T3 conditions; organic solvent extract of cell biomass
From the text: Ungerminated E. californica seeds were either pretreated by exposure to 5-azacytidine, or not pretreated. After uniform germination, callus induction and subculture, suspension initiation, and suspension subculture, the resulting suspension subcultures were subjected to T1 (control) and T3 conditions.

## Nc1ncn([C@@H]2O[C@H](CO)[C@@H](O)[C@H]2O)c(=O)n1 [5-azacytidine]
  size, number, and location of peaks in the chromatograms: significantly altered the size, number, and location of peaks
